Measurements published in patent US20110086389A1, “Compositions and Methods for Expressing In-Frame Multimeric Proteins” (priority 2008, published 2011).
Where two headings read alike, the source gives them in different places. Where a SMILES comes first, the peptide text is derived from it. Bridges are numbered along the chain shown (N, C = ends). Where no end group is shown, it is not given here.

How the values were obtained:
Kv1.4-1.6-1.1-1.2 = molecular target: T1, Kv1.4-1.6-1.1-1.2 (Rattus norvegicus, UniProt P10499+P15385+P17659+P63142); assay: Whole-cell voltage-clamp inhibition of IK, Kv1.4-containing hetero-tetramers; assay type: cell-based; details: Kv1.4-1.6-1.1-1.2 versus Kv1.4-1.6-1.3-1.2; 1, 10, 100 nM; assayed at ≦0 mV, FIG. 10F
T1 construct: nucleic acids encoding the full-length Kv subunit; inter-subunit linker to next subunit (region from Xenopus beta-globin UTRs); expressed in transfected cells; host or cells: HEK-293
Protocol: In these examples, the functional properties of the concatenated Kv1 heteromers Kv 1.1-1.1-1.2-1.2, Kv1.4-1.6-1.1-1.2 and Kv1.4-1.6-1.3-1.2 were examined by whole-cell voltage-clamped recordings from the corresponding transfected HEK-293 cells. The activation kinetics of the currents mediated by Kv 1.1-1.1-1.2-1.2 Kv 1.4-1.6-1.1-1.2 and Kv1.4-1.6-1.3-1.2 were determined.
The sensitivities of the potassium channel currents mediated by Kv 1.1-1.1-1.2-1.2 Kv 1.4-1.6-1.1-1.2 and Kv1.4-1.6-1.3-1.2 to various blockers were also examined in these examples.
Whole-cell voltage-clamp experiments were performed as outlined in Sokolov, et al., Neuropharmacol. 53:2, 272-282, (2007), whose disclosure is hereby incorporated by reference. The internal solution was (in mM): 90 KCl, 50 KF, 30 KOH, 10 EGTA, 20 HEPES, pH 7.4. […] Correction was made for a calculated liquid junction potential of +8.4 mV. […] Non-linear fitting was carried out with equations described in (Sack et al., Gen. Physiol. 128:1, 119-132, (2006), whose disclosure is hereby incorporated by reference. Data are reported as mean±standard error; n values refer to number of individual cells tested. Statistical significance was evaluated by two-tailed Student's t-test using data obtained from at least five independent experiments performed in parallel.

[1] = molecular target: T2, Kv1.1-1.1-1.2-1.2 tetramer (Rattus norvegicus, UniProt P10499+P63142); assay: Competition of 125I-αDTX binding to transfected HEK-293 cells; set-up: displacement of 125I-αDTX from the tetramer: dose or concentration left out as unconfirmed; details: for displacement of 125I-αDTX from the tetramer: transfected HEK-293 cells, FIG. 4B
T2 construct: nucleic acids encoding the full-length Kv subunit; inter-subunit linker to next subunit (region from Xenopus beta-globin UTRs); expressed in transfected cells; host or cells: HEK-293 (pIRES2-EGFP vector)
Protocol: HEK 293 cells are transiently transfected with a PIRES2-EGFP vector encoding Kv1.1-1.1-1.2-1.2 (also referred to as forward adjacent channel; see below) and the cells incubated to display the potassium channels on the cell membranes.
Cells are harvested in 25 mM Tris HCl, 5 mM KCl pH 7.5 Saturatable binding of ^125I-α-dendrotoxin (DTX), a Kv1-selective toxin, was performed using a filtration assay to measure the amount of assembled channel targeted to the plasmalemma. Transfected cells suspended in binding buffer were incubated for 1 hour with increasing concentrations of labelled DTX; for non-saturable binding experiments, the incubation is performed in the presence of 1 μM unlabeled DTX. Measurements are made in triplicate under established conditions by rapid filtration through GF/F glass microfiber filters presoaked with 0.5% (w/v) polyethyleneimine. The radioactivity associated with the washed filters was quantified by γ-radiation counting.
In FIG. […]

[2] = molecular target: T3, Kv1.2-1.1-1.2-1.1 (reverse diagonal channel) (Rattus norvegicus, UniProt P10499+P63142); assay: Whole-cell voltage-clamp (QPatch) inhibition of K+ current, reverse diagonal channel; assay type: cell-based; details: HEK-293 cells
T3 construct: nucleic acids encoding the full-length Kv subunit; inter-subunit linker to next subunit (region from Xenopus beta-globin UTRs); expressed in transfected cells; host or cells: HEK-293 (pIRES2-EGFP vector)
Protocol: (§1) Whole-cell voltage-clamp experiments were performed as outlined in Sokolov, et al., Neuropharmacol. 53:2, 272-282, (2007), whose disclosure is hereby incorporated by reference. The internal solution was (in mM): 90 KCl, 50 KF, 30 KOH, 10 EGTA, 20 HEPES, pH 7.4. The extracellular bath solution contained (in mM) 135 choline chloride, 20 KOH, 1.8 CaCl2, 1 MgCl2, and 40 HEPES, pH 7.4, and 0.01% (w/v) BSA. Solutions were exchanged by continuous flow with a peristaltic pump or a Cellectricon Dynaflow-16 system. Series resistance compensation was applied to minimize the voltage error (<10 mV). Correction was made for a calculated liquid junction potential of +8.4 mV. Holding potential was −100 mV. Leak subtraction was used to isolate K^+ current (IK). Analogue traces were filtered at 5 kHz, and sampled at 50 kHz. Non-linear fitting was carried out with equations described in (Sack et al., Gen. Physiol. 128:1, 119-132, (2006), whose disclosure is hereby incorporated by reference. Data are reported as mean±standard error; n values refer to number of individual cells tested. Statistical significance was evaluated by two-tailed Student's t-test using data obtained from at least five independent experiments performed in parallel.
(§2) In these examples, the functional properties of the Kv1 heteromers Kv1.1-1.1-1.2-1.2, Kv1.1-1.2-1.1-1.2, […] and Kv1.2-1.1-1.2-1.1 were compared by whole-cell, voltage-clamp, conventional recordings from HEK-293 cells transfected separately with each of the 4 constructs.
(§3) In these examples the sensitivities of the potassium channel currents mediated by these tetramers to various blockers were also examined. Inhibition by TEA, or Agitoxinl (AgTX1) and TsTX-Kα were determined.
(§4) Whole-cell voltage-clamp was performed as described in Example 25-27, except where specified. […] Whole cell currents were measured at a holding potential of −100 mV, then depolarised to +60 mV for 200 ms or stepped from the holding potential in +10 mV increments. […]

[3] = molecular target: T4, Kv1.1-1.2-1.1-1.2 (forward diagonal channel) (Rattus norvegicus, UniProt P10499+P63142); assay: Whole-cell voltage-clamp (QPatch) inhibition of K+ current, diagonal channel; assay type: cell-based; details: for IC50: HEK-293 cells
T4 construct: nucleic acids encoding the full-length Kv subunit; inter-subunit linker to next subunit (region from Xenopus beta-globin UTRs); expressed in transfected cells; host or cells: HEK-293 (pIRES2-EGFP vector)
Protocol: as §1, §2, §3
(§5) Whole-cell voltage-clamp was performed as described in Example 25-27, except where specified. For larger scale recordings, an automated patch-clamp system (QPatch 16, Sophion, Denmark) was used; its disposable Qplates contain 16 individual and parallel patch-clamp positions. Cells were detached from culture plates with 0.05% trypsin/EDTA solution and kept in serum-free medium (CHO-S-SFM II [Invitrogen], 25 mM HEPES, pH 7.4, 0.04 μg/ml soya bean trypsin inhibitor, and 10 μg/ml penicillin-streptomycin) in an on-board stirred reservoir. Prior to testing, the cells were automatically transferred to an integral mini-centrifuge, pelleted, re-suspended in external solution (as detailed above) and washed before being applied to the pipeting wells in the Q plate. Giga-seals were formed upon execution of a combined suction/voltage protocol; gradually increasing suction leads to the whole-cell configuration. […] Whole cell currents were measured at a holding potential of −100 mV, then depolarised to +60 mV for 200 ms or stepped from the holding potential in +10 mV increments. […]

[4] = molecular target: T5, Kv1.1-1.1-1.2-1.2 (forward adjacent channel) (Rattus norvegicus, UniProt P10499+P63142); assay: Whole-cell voltage-clamp (QPatch) inhibition of K+ current, adjacent channel; assay type: cell-based; details: for IC50: HEK-293 cells, holding −100 mV, depolarised to +60 mV
T5 construct: nucleic acids encoding the full-length Kv subunit; inter-subunit linker to next subunit (region from Xenopus beta-globin UTRs); expressed in transfected cells; host or cells: HEK-293 (pIRES2-EGFP vector)
Protocol: as §1, §2, §3, §5

[5] = molecular target: T6, Kv1.2-1.2-1.1-1.1 (reverse adjacent channel) (Rattus norvegicus, UniProt P10499+P63142); assay: Whole-cell voltage-clamp (QPatch) inhibition of K+ current, reverse adjacent channel; assay type: cell-based; details: HEK-293 cells, holding −100 mV, depolarised to +60 mV
T6 construct: nucleic acids encoding the full-length Kv subunit; inter-subunit linker to next subunit (region from Xenopus beta-globin UTRs); expressed in transfected cells; host or cells: HEK-293 (pIRES2-EGFP vector)
Protocol: as §1, §2, §3, §4

[6] = molecular target: T7, Kv1.1-1.2 dimer-containing channel (Rattus norvegicus, UniProt P10499+P63142); assay: Whole-cell voltage-clamp inhibition of K+ current, dimer-containing channel; assay type: cell-based; details: HEK-293 cells
T7 construct: expressed in transfected cells
Protocol: as §1, §2, §3, §4

[7] = unit printed in cell (row head says nM), read-out: IC50 TsTxKα
[8] = unit printed in cell (row head says nM), read-out: IC50 AgTx1
[9] = holding −100 mV, depolarised to +60 mV, read-out: IC50 TEA

T7 sequence (P10499 whole entry): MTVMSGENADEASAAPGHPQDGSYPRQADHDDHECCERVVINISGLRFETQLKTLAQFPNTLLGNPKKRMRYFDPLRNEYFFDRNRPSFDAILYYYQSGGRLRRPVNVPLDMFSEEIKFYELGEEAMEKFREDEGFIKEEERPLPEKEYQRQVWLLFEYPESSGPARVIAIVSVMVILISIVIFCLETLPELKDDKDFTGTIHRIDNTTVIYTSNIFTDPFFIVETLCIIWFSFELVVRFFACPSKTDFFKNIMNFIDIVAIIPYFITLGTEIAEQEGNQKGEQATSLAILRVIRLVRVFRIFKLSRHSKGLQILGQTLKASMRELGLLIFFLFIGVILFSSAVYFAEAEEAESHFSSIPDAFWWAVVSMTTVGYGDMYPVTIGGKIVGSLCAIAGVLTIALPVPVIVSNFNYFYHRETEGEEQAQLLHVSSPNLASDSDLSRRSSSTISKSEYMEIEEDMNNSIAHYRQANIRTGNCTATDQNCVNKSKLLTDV
T7 sequence (P63142 whole entry): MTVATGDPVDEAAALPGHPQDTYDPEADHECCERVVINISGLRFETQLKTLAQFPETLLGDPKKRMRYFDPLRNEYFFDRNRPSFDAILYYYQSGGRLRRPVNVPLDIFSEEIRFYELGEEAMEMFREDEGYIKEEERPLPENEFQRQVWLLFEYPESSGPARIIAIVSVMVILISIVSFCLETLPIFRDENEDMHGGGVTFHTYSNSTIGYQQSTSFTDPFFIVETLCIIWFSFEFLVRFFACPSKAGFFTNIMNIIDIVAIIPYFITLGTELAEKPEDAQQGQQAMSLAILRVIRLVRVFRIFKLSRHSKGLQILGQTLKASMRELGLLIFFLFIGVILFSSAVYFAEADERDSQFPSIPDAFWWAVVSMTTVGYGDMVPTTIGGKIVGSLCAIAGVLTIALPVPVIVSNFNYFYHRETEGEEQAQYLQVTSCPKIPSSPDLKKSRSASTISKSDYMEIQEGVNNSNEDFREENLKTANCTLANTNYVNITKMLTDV
T2 sequence (P10499 whole entry): as the sequence (P10499 whole entry) above
T2 sequence (P10499 whole entry): as above
T2 sequence (P63142 whole entry): as the sequence (P63142 whole entry) above
T2 sequence (P63142 whole entry): as above
T4 sequence (P10499 whole entry): as the sequence (P10499 whole entry) above
T4 sequence (P63142 whole entry): as the sequence (P63142 whole entry) above
T4 sequence (P10499 whole entry): as the sequence (P10499 whole entry) above
T4 sequence (P63142 whole entry): as the sequence (P63142 whole entry) above
T5 sequence (P10499 whole entry): as the sequence (P10499 whole entry) above
T5 sequence (P10499 whole entry): as above
T5 sequence (P63142 whole entry): as the sequence (P63142 whole entry) above
T5 sequence (P63142 whole entry): as above
T6 sequence (P63142 whole entry): as above
T6 sequence (P63142 whole entry): as above
T6 sequence (P10499 whole entry): as the sequence (P10499 whole entry) above
T6 sequence (P10499 whole entry): as above
T3 sequence (P63142 whole entry): as the sequence (P63142 whole entry) above
T3 sequence (P10499 whole entry): as the sequence (P10499 whole entry) above
T3 sequence (P63142 whole entry): as the sequence (P63142 whole entry) above
T3 sequence (P10499 whole entry): as the sequence (P10499 whole entry) above
T1 sequence (P15385 whole entry): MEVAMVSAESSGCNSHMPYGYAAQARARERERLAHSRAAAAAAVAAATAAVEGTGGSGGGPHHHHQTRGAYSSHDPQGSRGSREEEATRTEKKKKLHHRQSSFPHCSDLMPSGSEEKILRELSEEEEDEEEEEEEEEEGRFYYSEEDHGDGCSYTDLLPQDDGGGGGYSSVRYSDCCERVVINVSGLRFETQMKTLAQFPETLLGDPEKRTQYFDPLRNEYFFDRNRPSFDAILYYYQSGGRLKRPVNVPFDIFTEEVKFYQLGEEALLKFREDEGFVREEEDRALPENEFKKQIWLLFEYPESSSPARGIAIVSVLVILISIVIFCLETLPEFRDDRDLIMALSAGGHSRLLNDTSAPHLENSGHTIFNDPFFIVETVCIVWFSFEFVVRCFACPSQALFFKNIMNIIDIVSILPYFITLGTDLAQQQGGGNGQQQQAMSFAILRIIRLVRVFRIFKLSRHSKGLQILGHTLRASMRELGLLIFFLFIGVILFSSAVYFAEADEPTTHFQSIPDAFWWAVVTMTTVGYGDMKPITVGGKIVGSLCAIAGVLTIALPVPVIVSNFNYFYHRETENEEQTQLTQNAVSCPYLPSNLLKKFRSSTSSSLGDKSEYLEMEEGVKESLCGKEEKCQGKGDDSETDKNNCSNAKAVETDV
T1 sequence (P17659 whole entry): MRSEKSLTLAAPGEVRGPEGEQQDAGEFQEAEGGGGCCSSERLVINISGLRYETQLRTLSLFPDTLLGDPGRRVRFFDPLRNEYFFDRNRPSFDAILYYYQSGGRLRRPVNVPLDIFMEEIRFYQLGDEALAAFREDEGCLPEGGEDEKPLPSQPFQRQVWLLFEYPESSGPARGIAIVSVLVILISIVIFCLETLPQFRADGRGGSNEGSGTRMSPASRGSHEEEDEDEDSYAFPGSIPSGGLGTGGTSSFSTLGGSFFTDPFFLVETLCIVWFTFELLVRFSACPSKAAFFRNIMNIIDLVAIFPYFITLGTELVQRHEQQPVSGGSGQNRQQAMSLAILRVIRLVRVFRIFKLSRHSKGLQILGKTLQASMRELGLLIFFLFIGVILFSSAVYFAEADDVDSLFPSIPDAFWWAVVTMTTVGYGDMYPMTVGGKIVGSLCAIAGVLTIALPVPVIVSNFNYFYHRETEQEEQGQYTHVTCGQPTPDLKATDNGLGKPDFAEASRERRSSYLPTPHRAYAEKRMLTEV
T1 sequence (P10499 whole entry): as the sequence (P10499 whole entry) above
T1 sequence (P63142 whole entry): as the sequence (P63142 whole entry) above

DTXk: toxin, Kv1 channel blocker competing with 125I-αDTX (AAKYCKLPLRIGPCKRKIPSFYYKWKAKQCLPFDYSGCGGNANRFKTIEECRRTCVG; ends and bridges not checked; cysteine pairing not given here)
inhibition of IK, sensitivity difference between channels (Kv1.4-1.6-1.1-1.2): significant sensitivity difference
displacement of 125I-αDTX from the tetramer [1]: readily displaced

CC[C@H](C)[C@@H]1NC(=O)[C@H](C)NC(=O)[C@H](CCC(=O)O)NC(=O)[C@H](CCCCN)NC(=O)[C@@H]2CSSC[C@@H](C(=O)N[C@@H](Cc3ccc(O)cc3)C(=O)N3CCC[C@H]3C(=O)O)NC(=O)[C@H](CCCCN)NC(=O)[C@@H]3CSSC[C@H](NC(=O)[C@H](CCC(=O)O)NC(=O)[C@@H]4CCCN4C(=O)[C@H](CO)NC(=O)CNC(=O)[C@H](CCCNC(=N)N)NC(=O)[C@@H](NC(=O)[C@H](CCCCN)NC(=O)[C@H](C)NC(=O)[C@H](CC(N)=O)NC(=O)[C@@H](NC(=O)[C@H](Cc4ccccc4)NC(=O)[C@@H](N)C(C)C)[C@@H](C)CC)CSSC[C@H](NC(=O)[C@H](CCCCN)NC(=O)CNC(=O)[C@H](C)NC(=O)[C@H](C)NC(=O)[C@H](CCCCN)NC(=O)CNC1=O)C(=O)N[C@@H](CCSC)C(=O)N[C@@H](CC(N)=O)C(=O)NCC(=O)N[C@@H](CCCCN)C(=O)N3)C(=O)N[C@@H](CC(C)C)C(=O)N1CCC[C@H]1C(=O)N[C@@H](CCCCN)C(=O)N2 [TsTxKα, tityustoxin-Kα] (H-VFINAKCRGSPECLPKCKEAIGKAAGKCMNGKCKCYP-OH; disulfide 7-28, 13-33, 17-35; N-terminus and C-terminus assumed)
IC50 [2, 7]: > 1000 nM
displacement of 125I-αDTX from the tetramer [1]: readily displaced
IC50 [3, 7]: > 1000 nM
IC50 ([4]; read-out: IC50 TsTxKα): 0.026 ± 0.003 µM
IC50 ([5]; read-out: IC50 TsTxKα): 0.025 ± 0.007 µM
IC50 ([6]; read-out: IC50 TsTxKα): 0.033 ± 0.003 µM

ShK: toxin competing with 125I-αDTX binding; parent of derivative ShK-Dap^22
antagonism of 125I-αDTX binding ([1]; 2.5 μM 125I-αDTX, transfected HEK cells, FIG. 4C): to a greater extent than does the derivative ShK-Dap^22

CC[C@H](C)[C@@H]1NC(=O)[C@@H]2CSSC[C@H](NC(=O)[C@H](CCCCN)NC(=O)[C@@H](NC(=O)[C@H](CC(N)=O)NC(=O)[C@@H](NC(=O)[C@@H]3CCCN3C(=O)[C@@H](NC(=O)CN)C(C)C)[C@@H](C)CC)C(C)C)C(=O)N[C@@H]([C@@H](C)O)C(=O)NCC(=O)N[C@@H](CO)C(=O)N3CCC[C@H]3C(=O)N[C@@H](CCC(N)=O)C(=O)N[C@H]3CSSC[C@H](NC(=O)[C@H](CCCCN)NC(=O)CNC(=O)[C@H](CC(N)=O)NC1=O)C(=O)N[C@@H](Cc1c[nH]cn1)C(=O)N[C@H](C(=O)N[C@H](C(=O)N1CCC[C@H]1C(=O)N[C@@H](CCCCN)C(=O)O)[C@@H](C)O)CSSC[C@H](NC(=O)[C@@H]1CCCN1C(=O)[C@H](CCCCN)NC(=O)[C@H](CC(C)C)NC3=O)C(=O)N[C@@H](CCCCN)C(=O)N[C@@H](CC(=O)O)C(=O)N[C@@H](C)C(=O)NCC(=O)N[C@@H](CCSC)C(=O)N[C@@H](CCCNC(=N)N)C(=O)N[C@@H](Cc1ccccc1)C(=O)NCC(=O)N[C@@H](CCCCN)C(=O)N2 [AgTx1, Agitoxinl] (H-GVPINVKCTGSPQCLKPCKDAGMRFGKCINGKCHCTPK-OH; disulfide 8-28, 14-33, 18-35; N-terminus and C-terminus assumed)
IC50 [2, 8]: ≥ 1000 nM
IC50 [3, 8]: > 1000 nM
sensitivity to AgTX1 ([3]; diagonal oligomers, FIG. 12C): virtually insensitive
IC50 ([4]; read-out: IC50 AgTx1): 0.005 ± 0.0004 µM
IC50 ([5]; read-out: IC50 AgTx1): 0.005 ± 0.0005 µM
IC50 ([6]; read-out: IC50 AgTx1): 0.039 ± 0.004 µM

CC[N+](CC)(CC)CC [TEA, tetraethylammonium]
IC50 [2, 9]: 960000 ± 140000 nM
IC50 [3, 9]: 760000 ± 100000 nM
IC50 ([4]; read-out: IC50 TEA): 9700 ± 1000 µM
fold lower affinity for TEA than the corresponding diagonals ([4]; forward and reverse adjacent channels versus diagonal channels, FIG. 12B): ~11 fold
IC50 ([5]; read-out: IC50 TEA): 6700 ± 2000 µM
IC50 ([6]; read-out: IC50 TEA): 12000 ± 1000 µM

α-dendrotoxin (QPRRKLCILHRNPGRCYDKIPAFYYNQKKKQCERFDWSGCGGNSNRFKTIEECRRTCIG) [αDTX]
displacement of 125I-αDTX from the tetramer [1]: readily displaced
